From patent US20240245770A1, “COMPOSITIONS AND METHODS FOR TREATING NEUROMUSCULAR DISORDERS” (The Regents of the University of California, priority 2019, published 2024)

Tested on: serum cytokine/chemokine/growth factor/ligands of ALS patient
Assay: Serum Luminex, before and after NAC treatment
Assay type: in vivo, human
Method: (§1) Serum Luminex. Serum from patients were used to determine the levels of cytokine/chemokine/growth factor/ligands secretion using multiplex luminex assay. Scatter plot was prepared using the levels of cytokine/chemokine/growth factor/ligands in serum obtained at different dates from patients as compared to controls.
Serum Luminex. Serum from patients were used to determine the levels of cytokine/chemokine/growth factor/ligands secretion using multiplex luminex assay.
as §1

[1] = H110 RS post NAC (second line, continues Table 138A)
[2] = JC sera Apr. 5, 2020 (NAC infusion)
[3] = JC sera Apr. 16, 2020 (NAC infusion)
[4] = JC sera Apr. 23, 2020 (NAC infusion)

`CC(=O)N[C@@H](CS)C(=O)O` [NAC, N-Acetyl-Cysteine] was tested, and the “IFN-g, ALS patient compared to healthy twin” value (41 plex after NAC) was 1.6, the “IL-2, ALS patient compared to healthy twin” value (41 plex after NAC) was 0.9 and the “IL-4, ALS patient compared to healthy twin” value (41 plex after NAC) was 1.1. The “IL-10, ALS patient compared to healthy twin” value (41 plex after NAC) was 0.95, the “IL-12 p70, ALS patient compared to healthy twin” value (41 plex after NAC) was 1.3 and the “IL-13, ALS patient compared to healthy twin” value (41 plex after NAC) was 0.99. The “TNF-a, ALS patient compared to healthy twin” value (41 plex after NAC) was 2.2, the Franktalkine (After NAC, Ave JC 4/5 to 6/24) was 34.8 and the GM-CSF (After NAC, Ave JC 4/5 to 6/24) was 68.8. It also gave an IL-4 (After NAC, Ave JC 4/5 to 6/24) of 12.8, an IL-23 (After NAC, Ave JC 4/5 to 6/24) of 125.6 and an ITAC (After NAC, Ave JC 4/5 to 6/24) of 13.34. It also gave an MIP-1b (After NAC, Ave JC 4/5 to 6/24) of 21.6, an IFNg (Ave JC 4/5 to 6/24) of 7.25 and an IL-1b (Ave JC 4/5 to 6/24) of 0.82. For the same compound, the IL-2 (Ave JC 4/5 to 6/24) was 1.45, the IL-6 (Ave JC 4/5 to 6/24) was 1.9 and the IL-7 (Ave JC 4/5 to 6/24) was 5.7. It also gave an IL-8 (Ave JC 4/5 to 6/24) of 4.4, an IL-10 (Ave JC 4/5 to 6/24) of 7.8 and an IL-12p70 (Ave JC 4/5 to 6/24) of 2. The IL-13 (Ave JC 4/5 to 6/24) was 4.32, the IL-17A (Ave JC 4/5 to 6/24) was 4 and the IL-21 (Ave JC 4/5 to 6/24) was 0.7. The MIP-1a (Ave JC 4/5 to 6/24) was 11.5, the MIP-3a (Ave JC 4/5 to 6/24) was 8.1 and the TNFa (Ave JC 4/5 to 6/24) was 8.2 pg/mL. The Franktalkine (Ave JC sera for NAC infusion) was 34.8 pg/mL, the GM-CSF (Ave JC sera for NAC infusion) was 68.8 pg/mL and the IFNg (Ave JC sera for NAC infusion) was 7.25 pg/mL. For the same compound, the IL-1b (Ave JC sera for NAC infusion) was 0.82 pg/mL, the IL-2 (Ave JC sera for NAC infusion) was 1.45 pg/mL and the IL-4 (Ave JC sera for NAC infusion) was 12.8 pg/mL. The IL-6 (Ave JC sera for NAC infusion) was 1.9 pg/mL, the IL-7 (Ave JC sera for NAC infusion) was 5.7 pg/mL and the IL-8 (Ave JC sera for NAC infusion) was 4.4 pg/mL. It also gave an IL-10 (Ave JC sera for NAC infusion) of 7.8 pg/mL, an IL-12p70 (Ave JC sera for NAC infusion) of 2 pg/mL and an IL-13 (Ave JC sera for NAC infusion) of 4.32 pg/mL. For the same compound, the IL-17A (Ave JC sera for NAC infusion) was 4 pg/mL, the IL-21 (Ave JC sera for NAC infusion) was 0.7 pg/mL and the IL-23 (Ave JC sera for NAC infusion) was 125.6 pg/mL. It also gave an ITAC (Ave JC sera for NAC infusion) of 13.34 pg/mL, an MIP-1a (Ave JC sera for NAC infusion) of 11.5 pg/mL and an MIP-1b (Ave JC sera for NAC infusion) of 21.6 pg/mL. It also gave an MIP-3a (Ave JC sera for NAC infusion) of 8.1 pg/mL, a TNFa (Ave JC sera for NAC infusion) of 8.2 pg/mL and a CMD [1] of 1391 pg/mL. For the same compound, the GRO [1] was 2246 pg/mL, the IFNg [1] was 20.14 pg/mL and the IL-1Ra [1] was 247.51 pg/mL. For the same compound, the IL-1a [1] was 43.39 pg/mL, the IL-1b [1] was 6.64 pg/mL and the IL-3 [1] was 7.88 pg/mL. The IL-4 [1] was 53.81 pg/mL, the IL-5 [1] was 38.12 pg/mL and the IL-6 [1] was 23.49 pg/mL. It also gave an IL-7 [1] of 21.7 pg/mL, an IL-8 [1] of 16.64 pg/mL and an IL-9 [1] of 16.88 pg/mL. For the same compound, the IL-10 [1] was 97.95 pg/mL, the IL-12p40 [1] was 82.26 pg/mL and the IL-12p70 [1] was 13.65 pg/mL. It also gave an IL-13 [1] of 33.66 pg/mL, an IL-15 [1] of 23.97 pg/mL and an IL-17a [1] of 12.34 pg/mL. The IP-10 [1] was 646.43 pg/mL, the L-2 [1] was 14.54 pg/mL and the MCP1 [1] was 846.7 pg/mL. The MCP3 [1] was 16.88 pg/mL, the MIP1a [1] was 17.37 pg/mL and the MIP1b [1] was 34.07 pg/mL. It also gave a PDGF-AB/BB [1] of 23823 pg/mL, a PDGFaa [1] of 8654 pg/mL and a Rantes [1] of 9480 pg/mL. It also gave a TNFa [1] of 30.58 pg/mL, a TNFb [1] of 6.89 pg/mL and a VEGF [1] of 247.51 pg/mL. It also gave a sCD40L [1] of 3545 pg/mL, an EGF (H110 RS post NAC, Aug. 8, 2019) of 21.91 pg/mL and an Eotaxin (H110 RS post NAC, Aug. 8, 2019) of 116.77 pg/mL. The FGF2 (H110 RS post NAC, Aug. 8, 2019) was 44.55 pg/mL, the FIT3L (H110 RS post NAC, Aug. 8, 2019) was 15.11 pg/mL and the Fractalkine (H110 RS post NAC, Aug. 8, 2019) was 61.83 pg/mL. For the same compound, the GCSF (H110 RS post NAC, Aug. 8, 2019) was 6131 pg/mL, the GMCSF (H110 RS post NAC, Aug. 8, 2019) was 26.68 pg/mL and the IFNa2 (H110 RS post NAC, Aug. 8, 2019) was 31.31 pg/mL. It also gave a TGFa (H110 RS post NAC, Aug. 8, 2019) of 22.12 pg/mL, an IL-2 (JC sera Apr. 5, 2020) of 0.14 pg/mL and an IL-4 (JC sera Apr. 5, 2020) of 18.46 pg/mL. It also gave an IL-5 (JC sera Apr. 5, 2020) of 2.64 pg/mL, an IL-6 (JC sera Apr. 5, 2020) of 2.74 pg/mL and an IL-7 (JC sera Apr. 5, 2020) of 5.61 pg/mL. The IL-8 (JC sera Apr. 5, 2020) was 5.32 pg/mL, the IL-21 (JC sera Apr. 5, 2020) was 0.82 pg/mL and the IL-23 (JC sera Apr. 5, 2020) was 144.83 pg/mL. The MIP-1a (JC sera Apr. 5, 2020) was 11.35 pg/mL, the MIP-1b (JC sera Apr. 5, 2020) was 24.47 pg/mL and the TNFa (JC sera Apr. 5, 2020) was 9.39 pg/mL. It also gave a Franktalkine [2] of 39.54 pg/mL, a GM-CSF [2] of 91.74 pg/mL and an IFNg [2] of 11.6 pg/mL. The IL-1b [2] was 0.87 pg/mL, the IL-10 [2] was 8.12 pg/mL and the IL-12p70 [2] was 2.32 pg/mL. The IL-13 [2] was 4.83 pg/mL, the IL-17A [2] was 6.07 pg/mL and the ITAC [2] was 18.73 pg/mL. The MIP-3a [2] was 11.35 pg/mL, the IL-2 (JC sera Apr. 16, 2020) was 0.32 pg/mL and the IL-4 (JC sera Apr. 16, 2020) was 11.22 pg/mL. The IL-5 (JC sera Apr. 16, 2020) was 2.21 pg/mL, the IL-7 (JC sera Apr. 16, 2020) was 4.9 pg/mL and the IL-8 (JC sera Apr. 16, 2020) was 3.55 pg/mL. The IL-21 (JC sera Apr. 16, 2020) was 0.62 pg/mL, the IL-23 (JC sera Apr. 16, 2020) was 116.26 pg/mL and the MIP-1a (JC sera Apr. 16, 2020) was 10.8 pg/mL. For the same compound, the MIP-1b (JC sera Apr. 16, 2020) was 18.56 pg/mL, the TNFa (JC sera Apr. 16, 2020) was 7.45 pg/mL and the Franktalkine [3] was 33.33 pg/mL. For the same compound, the GM-CSF [3] was 54.8 pg/mL, the IFNg [3] was 7.11 pg/mL and the IL-1b [3] was 0.65 pg/mL. For the same compound, the IL-10 [3] was 4.47 pg/mL, the IL-12p70 [3] was 2.1 pg/mL and the IL-13 [3] was 4.44 pg/mL. The IL-17A [3] was 3.15 pg/mL, the ITAC [3] was 11.26 pg/mL and the MIP-3a [3] was 5.58 pg/mL. It also gave an IL-2 (JC sera Apr. 23, 2020) of 5.42 pg/mL, an IL-4 (JC sera Apr. 23, 2020) of 15.94 pg/mL and an IL-5 (JC sera Apr. 23, 2020) of 2.21 pg/mL. For the same compound, the IL-7 (JC sera Apr. 23, 2020) was 6.39 pg/mL, the IL-8 (JC sera Apr. 23, 2020) was 3.72 pg/mL and the IL-21 (JC sera Apr. 23, 2020) was 0.68 pg/mL. The IL-23 (JC sera Apr. 23, 2020) was 132.6 pg/mL, the MIP-1a (JC sera Apr. 23, 2020) was 11.24 pg/mL and the MIP-1b (JC sera Apr. 23, 2020) was 16.32 pg/mL. For the same compound, the TNFa (JC sera Apr. 23, 2020) was 7.45 pg/mL, the Franktalkine [4] was 34.75 pg/mL and the GM-CSF [4] was 84.17 pg/mL. For the same compound, the IFNg [4] was 6.15 pg/mL, the IL-1b [4] was 0.77 pg/mL and the IL-10 [4] was 6 pg/mL. It also gave an IL-12p70 [4] of 2 pg/mL, an IL-13 [4] of 4.17 pg/mL and an IL-17A [4] of 2.78 pg/mL. It also gave an ITAC [4] of 10.71 pg/mL, an MIP-3a [4] of 6.78 pg/mL and an IL-2 (JC sera Apr. 30, 2020) of 0.06 pg/mL. The IL-4 (JC sera Apr. 30, 2020) was 14.43 pg/mL.
